Test results: patent US12403132B2, “Methods of treating bone marrow failure syndromes and compositions for use in the same” (The Board of Trustees of the Leland Stanford Junior …, priority 2020, dated 2025)

System: NLK
Assay: NLK expression in differentiating human progenitors (qRT-PCR, Western blot)
Assay type: cell-based
Design: reduction of NLK protein expression / NLK expression, % of control: concentration or dose not given beside the values
Conditions: for NLK expression, % of control: miRNAs or drugs, single and combined; for reduction of NLK protein expression: metformin
Procedure: FIG. 10. Metformin improves erythropoiesis through suppression of NLK expression. (Panel A) Control (shLuc—grey columns) or RPS19-insufficient (shRPS19-—black columns) progenitors were differentiated in erythroid media alone, vehicle or vehicle containing 50 mM metformin or 5 uM SD208 for 5 days. 5000 cells per treatment were lysed and immunopurified NLK was subjected to in vitro kinase assay to determine phosphorylation potential against 3 recognized NLK substrates; NLK itself (upper), c-Myb (middle) or raptor (bottom). (Panel B) Simultaneously, qRT-PCR was performed to examine NLK (upper) and RPS19 (lower) mRNA expression. (Panel C) Active NLK was purified from activated Kp53A1 cells and subjected to in vitro kinase assay in the presence of 0, 50 nM, 50 μM, or 50 mM metformin or SD208. The phosphorylation of NLK (upper), c-Myb (middle) and raptor (lower) was determined after 30 mins. (Panel D) CD34+ progenitors were transduced with a combination of either shRNA against luciferase (shLuc—grey columns) or RPS19 (shRPS19—black columns) and siRNA against a non-targeting sequence (NT) or NLK (siNLK). After 14 days differentiation in the presence or absence of metformin, cells were counted and the percentage of cells with surface expression of CD235 and CD11b were determined by flow cytometry, to yield the number of CD235+ erythroid (upper) and CD11b+ myeloid (lower) cells. The total number of cells is expressed as a percentage of the number of each cell type in the control (untreated/shLuc/NT). […] Statistics: two-tailed Student's t test, significant *P<0.05
RNA was extracted by using total RNA mini kit (Bio-Rad). RNA was transcribed into cDNA by using the iScript cDNA Synthesis Kit (Bio-Rad). The quantitative RT-PCR (qRT-PCR) reaction was run with iQ SYBR Green MasterMix (Bio-Rad) using the CFX384 Touch Real-Time PCR Detection System (Bio-Rad). 7SL small cytoplasmic RNA14 was used as an internal control. miRNA was quantified using TaqMan® Small RNA Assays (Applied Biosystems) as per manufacturer's directions and normalized to snoRNA. Fold change of mRNA and miRNA was calculated by using the comparative Ct method.
Antibodies against RPS19 (#AB40833; Abcam; 1:200 dilution), NLK (#AB97642; Abcam; 1:1000 dilution) c-Myb (#12319; Cell Signaling; 1;1000 dilution), raptor (#AB26264; Abcam 1;1000 dilution), phosphor-Serine (#525280; Calbiochem; 1:1000 dilution), S6K (#9202; Cell Signaling; 1:500 dilution), and 4E-BP1 (#9452; Cell Signaling; 1:500 dilution), and GAPDH (#MAB374; Millipore; 1:10000) were used according to manufacturer's instructions. The target proteins were analyzed by using SuperSignal® West Pico Chemiluminescent Substrate for horseradish peroxidase (Thermo Scientific). Densitometry was performed using Image J software (http://rsb.info.nih.gov/ij/). When indicated, proteins were co-immunoprecipitated prior to immunoblotting. Cell lysates were normalized for protein before preclearing with Protein A/G Agarose (Upstate) for 30 min, before incubating with indicated antibody overnight. Immune complexes were precipitated with Protein A/G Agarose and separated by SDS-PAGE, before being subjected to immunoblotting.
NLK kinase activity was performed as published (5). For Western blotting, antibodies against NLK (#AB97642; Abcam; 1:1000 dilution) and GAPDH (#MAB374; Millipore; 1:10000) were used according to manufacturer's instructions.
MessengerRNA was quantified as described (5). MicroRNA was quantified using TaqMan® Small RNA Assays (Applied Biosystems) as per manufacturer's directions and normalized to snoRNA.

Row | SMILES | influence on NLK expression (5 uM SD208) | reduction of NLK mRNA expression (RPS19-insufficiency, 50 mM) [%] | reduction of NLK mRNA expression (control, 50 mM) [%] | reduction of NLK protein (differentiating HSPCs, 50 mM) [%] | NLK expression, % of control [%] | NLK expression (RPS19-insufficient and control cells) | reduction of NLK protein expression (RPS19-insufficient cultures) [%] | reduction of NLK protein expression (control cultures) [%]
1 | Fc1ccc(Cl)cc1-c1nc(Nc2ccncc2)c2nccnc2n1 [SD208] | did not significantly influence | – | – | – | – | – | – | –
2 | CC(C)=CCC[C@](C)(O[C@@H]1O[C@H](CO[C@@H]2O[C@H](CO)[C@@H](O)[C@H](O)[C@H]2O)[C@@H](O)[C@H](O)[C@H]1O)[C@H]1CC[C@]2(C)[C@@H]1[C@H](O)C[C@@H]1[C@@]3(C)CC[C@H](O[C@@H]4O[C@H](CO)[C@@H](O)[C@H](O)[C@H]4O[C@@H]4O[C@H](CO)[C@@H](O)[C@H](O)[C@H]4O)C(C)(C)[C@@H]3CC[C@]12C [ginsenoside Rb1] | – | 43.2 | 43.8 | 46.4 | 65.4 | – | – | –
3 | CN(C)C(=N)N=C(N)N [metformin] | – | – | – | – | 40.6 | similarly suppressed | 65.4 | 62.6
